Reference: PMC11973282, “RAS70 peptide targets multiforme glioblastoma by binding to the plasma membrane heat shock protein HSP70” (Frontiers in Oncology, 2025)

What was measured:
normal brain tissues = assay: Ex vivo staining of normal brain tissue from patients with epilepsy; design: species or system human; details: tissues obtained intraoperatively from patients with epilepsy (n=2)
Procedure: For evaluation of targeting properties of RAS70 peptide in the non-tumorous brain tissues patient-derived samples obtained intraoperatively from patients with drug-resistant epilepsy underwent temporal resection (n=2) were employed.
Small pieces of brain tissue (50-100 mm³) were taken from patients or animals during surgery. The resulting material was washed three times in a PBS solution at room temperature and then stained, gently shaking, for 1 hour with one of the following combinations of dyes: a mixture of Hoechst 33342 (0.1 μg/mL) [Invitrogen, USA], monoclonal antibodies against Hsp70 conjugated with FITC, and RAS70 conjugated with Cy5; a mixture of Hoechst 33342 (0.1 μg/mL), LumiTracker® Mito Green FM [Lumiprobe, Russia], and TKD/NGL-RGD/RAS70 conjugated with sCy5. […] Hoechst 33342 fluorescence was excited with a 405 nm laser and recorded in the range 410 to 550 nm; Hsp70-FITC and Mito Green fluorescence were excited with a 488 nm laser and recorded in the range 495 to 550 nm; and Cy5 fluorescence was excited with a 633 nm laser and recorded in the range 635 to 750 nm. […]
To detect peptide localization, the biopsy material was additionally stained with a mitochondrial marker MitoGreen and anti-Hsp70 antibodies (SPA-810). […] Additionally, we assessed the depth of the RAS70-sCy3/sCy5 penetration into the tumor tissues […]. […]

primary GBM IBD cells = assay: Cell motility analysis; type: cell-based, human; details: 56 h recording
Procedure: The cell speed of the primary GBM culture was determined using Image ExFluorer, an automatic cell imaging device (LCI, Korea). The cells were seeded into 24-well plates, and the cell nuclei were labelled with the fluorescent dye Hoechst 33342. The plates were then placed in an integrated incubator with temperature control (37°C) and 5% CO2. The fluorescence was stimulated at 405 nm using a long-focus semi-apochromatic 20× lens with a numerical aperture of 0.45. The primary IBD cell line was divided into 4 wells, each with five visual fields: two untreated wells on distinct matrices (Collagen I and Fibrinogene) and two wells containing RAS70 peptide on matrices.
FOVs were captured every 15 minutes over 56 hours, resulting in images with a resolution of 2.560 × 2.160 pixels (0.33 μm/px). Real-time focus correction was used. The captured frames were analyzed using the NIS-Elements software with a module for automatic segmentation, quantification, and tracking of individual cells. Cell nuclei (with a diameter of more than 2.5 μm) were recognized in images, and the X-Y coordinates of the nuclei were recorded. Cell movement tracks were built according to the coordinates of the nuclei, and the motility metrics (average speed, maximal speed, and track straightness) were calculated.
Additionally, we evaluated the effect of RAS70 peptide on cell motility of primary glioblastoma culture. In order to investigate the possible influence of the RAS70 peptide on the invasive capacity of tumor cells, we conducted an experiment in which we recorded cell motility on two different substrates (Collagen I, Fibrinogen) for 56 h.

[1] = test system: human glioblastoma U251 cells; assay: Flow cytometry of FITC-labeled peptide internalization, 24 h; type: cell-based; details: 50 μg/mL, M ± SE, 3 independent experiments
Procedure: (§1) The binding of the TKD-sCy5, RAS70-sCy5, and NGL-RGD-sCy5 peptides were analyzed using a CytoFLEX flow cytometer (Beckman Coulter, USA). A single cell suspension of C6, GL261, T98G, U87, U251, ANI, IBD, TMS (0.15×10^6 cells in mL^-1) were incubated for 30 minutes on ice in the dark with peptides in concentration of 75 μg/mL, and then washed with cold PBS solution. Cells without peptides were used as controls. To evaluate incorporation of the fluorescently-labeled peptides for longer period of co-incubation of 24 h cells (C6, GL261, U87, U251) were treated with FITC-labeled peptides, then washed with PBS and assessed on a CytoFLEX flow cytometer (Beckman Coulter, USA). Following FACS analysis cell pellet was further evaluated employing confocal microscopy Leica TCS SP8 (Leica Microsystems, Germany).
(§2) The incorporation of peptides over longer periods of co-incubation with brain tumor cells was additionally analyzed using a Cytomics FC500 flow cytometer (BeckmanCoulter, USA). Tumor cells (C6, GL261, U87, U251) were incubated with peptides (concentration 50 μg/mL) for 24 hours, washed with PBS. Internalization of FITC-labeled peptides was assessed by determining the mean fluorescence intensity (MFI). According to the study data ( Figure 6A ), it was shown that TKD peptide accumulated in all cell lines – 2120 ± 152 (C6), 2099 ± 107 (GL261), 2145 ± 189 (U87), 2373 ± 201 (U251) compared to the control scramble peptide (NGL) – 378 ± 48 (C6), 344 ± 57 (GL261), 301 ± 66 (U87), 313 ± 56 (U251) (P<0.001). […] Following FACS analysis the cell pellet was collected and evaluated for peptides cell uptake employing confocal microscopy ( Figure 6B ). The obtained microscopy data confirmed higher accumulation of RAS70 peptide in studied cell lines as compared to TKD or scramble peptides.
(§3) Figure 6 Evaluation of the mHsp70-targeting peptides internalization by glioma cells. (A) Flow cytometric evaluation of FITC-labeled peptide accumulation in tumor cell lines (rat glioma C6, mouse glioma GL261, human glioblastoma U87 and U251) after co-incubation for 24 hours. […] (B) Confocal microscopy assessment of FITC-labeled peptide accumulation in tumor cell lines (rat glioma C6, mouse glioma GL261, human glioblastoma U87 and U251) after co-incubation for 24 hours. […] (C) Analysis of the peptides uptake by human U87 glioblastoma cells following co-incubation for 24 hours.

[2] = test system: GL261 (mouse glioma) cells; assay: as above; type: cell-based; details: 50 μg/mL, M ± SE, 3 independent experiments
Procedure: as §1, §2, §3

[3] = test system: U251 cells (lower chamber; HUVEC and astrocytes barrier); assay: Transwell BBB model, peptide passage and accumulation in tumor cells; details: transwell BBB model: HUVEC (5×10^5) and astrocytes (5×10^5) in upper chamber, U251 (1×10^4) in lower chamber; FITC-labeled peptide; 36 hours; confocal microscopy count; M ± SE, 3 independent experiments
Procedure: Then, a peptide labeled with a fluorescent label was introduced into the upper chamber and co-incubation was carried out for 12, 24 and 36 hours. At the end of the incubation, the tumor cells were washed with cold phosphate-buffered saline (PBS) and fixed with a 4% solution of paraformaldehyde in PBS. Nuclei were stained with 4’,6-diamidino-2-phenylindole (DAPI). Fluorescent images were obtained using a Leica TCS SP8 confocal microscope (Leica, Germany). To avoid possible cross-interference of different fluorochromes, images for DAPI and FITC were obtained using a sequential sample scanning method. Fluorescently labeled cells were counted in the lower chamber. To estimate the mHsp70-mediated uptake of chaperone-targeted peptides tumor cells prior to incubation were pre-treated with anti-Hsp70 monoclonal antibodies SPA-810 (1:250, Stressgen) and SPA-815 (1:250 Stressgen). To exclude integrin (αvβ3, αvβ5)-mediated penetration of RAS70 tumor cells prior to incubation with peptides were pre-treated with anti- αvβ3 (1:200 clone LM609, ZMS1030, Sigma-Aldrich, USA), -αvβ5 (1:200 clone P1F6, MAB1961Z, Sigma-Aldrich, USA) monoclonal antibodies.
Then, a peptide labeled with a fluorescent dye (FITC) was introduced into the upper chamber and co-incubation was carried out for 12, 24 and 36 hours. At the end of the incubation, the tumor cells were washed with cold phosphate-buffered saline (PBS) and fixed with a 4% solution of paraformaldehyde in PBS. Nuclei were stained with 4’,6-diamidino-2-phenylindole (DAPI).
Data from 3 independent experiments are presented as M ± SE. […] Data from 3 independent experiments are presented as M ± SE. ** p < 0.01 for testing mean expression levels.

Compound	localization in normal brain tissue (normal brain tissues)	effect on average cell speed (primary GBM IBD cells; IBD cells on Collagen I)	effect on maximum cell speed (primary GBM IBD cells; IBD cells on Collagen I)	effect on track straightness (primary GBM IBD cells; IBD cells on Collagen I)	effect on motility metrics (average speed, max speed, track straightness) (primary GBM IBD cells; IBD cells on fibrinogen)	mean fluorescence intensity (MFI), internalization of FITC-labeled peptide [1]	mean fluorescence intensity (MFI), internalization of FITC-labeled peptide [2]	fluorescently labeled tumor cells in the lower chamber [3] [cells]
CC(C)C[C@H](NC(=O)[C@H](CC(C)C)NC(=O)[C@H](CC(N)=O)NC(=O)[C@H](CC(N)=O)NC(=O)[C@H](CC(=O)O)NC(=O)[C@H](CCCCN)NC(=O)[C@@H](N)[C@@H](C)O)C(=O)NCC(=O)N[C@@H](CCCNC(=N)N)C(=O)N[C@@H](Cc1ccccc1)C(=O)N[C@@H](CCC(=O)O)C(=O)N[C@@H](CC(C)C)C(=O)N[C@@H](CO)C(=O)NCC(=O)NCCC(=O)N[C@@H](CCCNC(=N)N)C(=O)NCC(=O)N[C@@H](CC(=O)O)C(=O)O [RAS70]	no tissue-specific localization of RAS70 was detected	no effect on the average cell speed	slightly diminished maximum cell speed	increased the straightness of the trajectories	did not affect any of the measured motility metrics	3678 ± 212	3012 ± 182	–
CC(C)C[C@H](NC(=O)[C@H](CC(C)C)NC(=O)[C@H](CC(N)=O)NC(=O)[C@H](CC(N)=O)NC(=O)[C@H](CC(=O)O)NC(=O)[C@H](CCCCN)NC(=O)[C@@H](N)[C@@H](C)O)C(=O)NCC(=O)N[C@@H](CCCNC(=N)N)C(=O)N[C@@H](Cc1ccccc1)C(=O)N[C@@H](CCC(=O)O)C(=O)N[C@@H](CC(C)C)C(=O)N[C@@H](CO)C(=O)NCC(=O)O [TKD]	–	–	–	–	–	2373 ± 201	2099 ± 107	345 ± 51
